Results: patent publication US8999969B2, “Anti-RSV compounds” (Gilead Sciences, Inc., priority 2009, dated 2015)

Tested on: RSV strain A2
Test: in vitro cytoprotection assay against RSV in Hep2 cells
Assay type: cell-based
Conditions: human respiratory syncytial virus, HEp-2, 96 h; 1 uM compound; RSV-induced cytopathic effect in Hep2 cells, 4 days, Cell TiterGlo; read-out: RSV % inh. @ 1 uM
Protocol: Antiviral activity against RSV was determined using an in vitro cytoprotection assay in Hep2 cells. […] The method used is similar to methods previously described in Chapman J et al., “RSV604 a novel inhibitor of respiratory syncytial virus replication,” Antimicrob Agents Chemother, 51(9):3346-53 (2007).
Hep2 cells were obtained from ATCC (Manassas, Va.) and maintained in MEM media supplemented with 10% fetal bovine serum and penicillin/streptomycin. Cells were passaged twice a week and kept at subconfluent stage. Commercial stock of RSV strain A2 (Advanced Biotechnologies, Columbia, Md.) was titered before compound testing to determine the appropriate dilution of the virus stock that generates desirable cytopathic effect in Hep2 cells.
For antiviral tests, Hep2 cells were seeded into 96-well plates 24 hours before the assay at a density of 3,000 cells/well. On a separate 96well plate, tested compounds were serially diluted in cell culture media. Eight concentrations in 3-fold serial dilution increments were prepared for each tested compound and 100 uL/well of each dilution was transferred in duplicate onto plates with seeded Hep2 cells. Subsequently, appropriate dilution of virus stock previously determined by titration was prepared in cell culture media and 100 uL/well was added to test plates containing cells and serially diluted compounds. Each plate included three wells of infected untreated cells and three wells of uninfected cells that served as 0% and 100% virus inhibition control, respectively. Following the infection with RSV, testing plates were incubated for 4 days in a tissue culture incubator. After the incubation, RSV-induced cytopathic effect was determined using a Cell TiterGlo reagent (Promega, Madison, Wis.) followed by a luminescence read-out. The percentage inhibition was calculated for each tested concentration relative to the 0% and 100% inhibition controls and the EC50 value for each compound was determined by non-linear regression as a concentration inhibiting the RSV-induced cytopathic effect by 50%. Ribavirin (purchased from Sigma, St. Louis, Mo.) was used as a positive control for antiviral activity.

O=C(NC1CC1)c1cc2c(s1)-c1ccccc1N(C(=O)c1ccc(NC(=O)c3cccnc3N3CCC[C@H]3C(F)(F)F)cc1)CC2 [Example 42]
inhibition at 1 µM: 99%

O=C(Nc1ccc(C(=O)N2CCc3cc(C(=O)N4CCCC4)sc3-c3ccccc32)cc1)c1cccnc1N1CCCC1 [Example 49]
inhibition at 1 µM: 30%
